The values that follow are results of earlier work, collected in paper PMC3461162 (British Journal of Cancer, 2012).

For the series the following is noted: phase I, currently being investigated; no reference given; cited from earlier work.

For the compound `CNC(=O)c1cccc(-c2ccc3c(N4CCOC[C@@H]4C)nc(N4CCOC[C@@H]4C)nc3n2)c1` [AZD2014], the Rise in transaminases result was “no rise in transaminases has been reported”.
